Patent publication US20260297109A1, “COMPOUNDS AS SUMO ACTIVATING ENZYME INHIBITORS” (WIGEN BIOMEDICINE TECHNOLOGY (SHANGHAI) CO., LTD., priority 2022, published 2026)

The compounds below were run against T1, SAE (Homo sapiens, UniProt Q9UBT2) (assay: SUMO IF: in vitro inhibitory activity assay against SAE in HCT116 cells (SUMO-2/3 immunofluorescence)). Conditions: class symbols, 6 h at 37° C.
T1 construct: endogenous in cells; host or cells: HCT116
T1 sequence (Q9UBT2 1-640): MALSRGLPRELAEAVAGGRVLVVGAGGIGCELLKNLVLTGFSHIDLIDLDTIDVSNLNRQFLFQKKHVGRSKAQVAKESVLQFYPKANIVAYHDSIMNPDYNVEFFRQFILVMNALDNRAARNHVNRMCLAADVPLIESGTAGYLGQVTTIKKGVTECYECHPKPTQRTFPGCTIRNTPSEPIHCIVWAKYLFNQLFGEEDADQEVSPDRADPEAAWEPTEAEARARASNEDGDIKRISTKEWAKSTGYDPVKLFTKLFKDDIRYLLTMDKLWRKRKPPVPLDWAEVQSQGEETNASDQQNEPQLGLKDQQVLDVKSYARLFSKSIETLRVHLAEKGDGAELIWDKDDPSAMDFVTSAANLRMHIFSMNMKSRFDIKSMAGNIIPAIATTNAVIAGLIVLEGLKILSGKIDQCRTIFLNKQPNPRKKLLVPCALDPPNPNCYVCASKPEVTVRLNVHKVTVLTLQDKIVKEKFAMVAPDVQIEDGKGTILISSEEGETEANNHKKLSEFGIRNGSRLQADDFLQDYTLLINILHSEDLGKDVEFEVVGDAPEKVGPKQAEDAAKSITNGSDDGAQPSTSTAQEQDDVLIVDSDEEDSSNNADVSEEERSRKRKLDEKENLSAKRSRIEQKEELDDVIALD
T1 sequence (Q9UBE0 1-346): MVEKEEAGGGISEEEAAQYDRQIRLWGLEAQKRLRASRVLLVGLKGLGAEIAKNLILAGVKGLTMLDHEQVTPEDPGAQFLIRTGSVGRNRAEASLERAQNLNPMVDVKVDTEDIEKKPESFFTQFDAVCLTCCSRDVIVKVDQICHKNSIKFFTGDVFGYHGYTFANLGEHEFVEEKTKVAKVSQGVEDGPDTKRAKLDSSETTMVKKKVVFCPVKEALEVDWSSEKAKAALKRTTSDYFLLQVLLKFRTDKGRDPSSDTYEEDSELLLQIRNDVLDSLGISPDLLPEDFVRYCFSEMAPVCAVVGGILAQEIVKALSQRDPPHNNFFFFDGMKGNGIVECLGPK
Type: cell-based
Description: Biological Example 1. In Vitro Inhibitory Activity Assay of Compounds of the Present Disclosure Against SAE
HCT116 cells were seeded into a 96-well black transparent bottom plate at about 20000/well with 90 μL per well. The cells were incubated at 37° C. overnight for 24 h. The test compounds were 10-fold diluted to give a final concentration, and 10 μL of the diluted compounds was added to each well of the cell culture plate. The mixture was incubated at 37° C. for 6 h. The cells were then washed gently, the culture medium was discarded, and the cells were washed once with 200 μL of 0.1% PBST. 50 μL of 4% PFA was added to each well, and the cells were immobilized at room temperature for 20 min, and then washed with PBS 2-3 times. 50 μL of 0.2% Triton X-100 was added to each well, and the cells were left to stand at room temperature for 15 min and washed with 0.1% PBST 3 times. 100 μL of 3% BSA (0.6 g BSA+20 mL PBS) was added to each well, and the mixture was blocked at 37° C. for 30 min. After the blocking was completed, the liquid was removed and a primary antibody (SUMO-2/3 (18H8) Rabbit mAb, 1:400 dilution) was prepared with 1% BSA. 30 μL of the diluted primary antibody was added to each well, and the mixture was incubated at 4° C. overnight. The cells were washed 3 times with 200 μL of 0.1% PBST. A FITC secondary antibody (Fluorescein (FITC)-conjugated Affinipure Goat Anti-Rabbit IgG (H+L), 1:300 dilution) was further prepared with 1% BSA, and 40 μL of the diluted secondary antibody was added to each well. The mixture was incubated at room temperature in the dark for 2 h, and then the cells were washed 4 times with 0.1% PBST. The fluorescence signal of the sample was detected and compared to the DMSO group, and the inhibition rate and IC50 were calculated.

| Structure (SMILES) | IC50 |
| --- | --- |
| NS(=O)(=O)OC[C@H]1[C@H](F)[C@@H](Nc2ncncc2C(=O)c2cc3c(s2)CC[C@]32NCCc3ccc(C(F)(F)F)cc32)C[C@@H]1O [Compound 690] | 50 to 200 nM |
| NS(=O)(=O)OC[C@H]1[C@H](F)[C@@H](Nc2ncncc2C(=O)c2cc3c(s2)C=C[C@@]32OCCc3ccc(Cl)cc32)C[C@@H]1O [Compound 760] | > 200 nM |
| CC(C)N1Cc2sc(C(=O)c3cncnc3N[C@H]3C[C@H](O)[C@@H](COS(N)(=O)=O)[C@@H]3F)cc2[C@]2(C1)OCCc1ccc(F)cc12 [Compound 734] | ≤ 50 nM |
| Cc1sc(C(=O)c2cncnc2N[C@H]2C[C@H](O)[C@@H](COS(N)(=O)=O)[C@@H]2F)cc1C1NCCc2ccc(F)cc21 (stereo partly shown) [Compound 235] | > 200 nM |
| NS(=O)(=O)OC[C@H]1[C@H](F)[C@@H](Nc2ncncc2C(=O)c2cc3c(s2)CN(CC(F)(F)F)CC32NCCc3ccc(Cl)cc32)C[C@@H]1O (stereo partly shown) [Compound 651] | ≤ 50 nM |
| Nc1sc(C(=O)c2cncnc2N[C@H]2C[C@H](O)[C@@H](COS(N)(=O)=O)[C@@H]2F)cc1C1NCCc2ccc(Cl)cc21 (stereo partly shown) [Compound 264] | 50 to 200 nM |
| NS(=O)(=O)OC[C@H]1[C@H](F)[C@@H](Nc2ncncc2C(=O)c2cc3c(s2)CCC[C@]32NCCc3ccc(Cl)nc32)C[C@@H]1O [Compound 602] | ≤ 50 nM |
| Cc1sc(C(=O)c2cncnc2N[C@H]2C[C@H](O)[C@@H](COS(N)(=O)=O)[C@@H]2F)cc1C1NCCc2cc(Cl)c(F)cc21 (stereo partly shown) [Compound 252] | 50 to 200 nM |
| NS(=O)(=O)OC[C@H]1[C@H](F)[C@@H](Nc2ncncc2C(=O)c2cc3c(s2)CC[C@]32OCCc3ccc(F)cc32)C[C@@H]1O [Compound 749] | 50 to 200 nM |
| NS(=O)(=O)CC[C@H]1[C@H](F)[C@@H](Nc2ncncc2C(=O)c2cc3c(s2)CC[C@@]32NCCc3ccc(Cl)cc32)C[C@@H]1O [Compound 641] | > 200 nM |
| NS(=O)(=O)OC[C@H]1[C@H](F)[C@@H](Nc2ncncc2C(=O)c2cc3c(s2)COCC32NCCc3ccc(Cl)cc32)C[C@@H]1O (stereo partly shown) [Compound 103] | 50 to 200 nM |
| N#Cc1ccc2c(c1)C1(CCCc3sc(C(=O)c4cncnc4N[C@H]4C[C@H](O)[C@@H](COS(N)(=O)=O)[C@@H]4F)cc31)OCC2 (stereo partly shown) [Compound 714] | 50 to 200 nM |
| C#CCN1Cc2sc(C(=O)c3cncnc3N[C@H]3C[C@H](O)[C@@H](COS(N)(=O)=O)[C@@H]3F)cc2C2(C1)NCCc1ccc(Cl)cc12 (stereo partly shown) [Compound 657] | ≤ 50 nM |
| COc1ccc2c(c1)C1(CCCc3sc(C(=O)c4cncnc4N[C@H]4C[C@H](O)[C@@H](COS(N)(=O)=O)[C@@H]4F)cc31)NCC2 (stereo partly shown) [Compound 108] | > 200 nM |
| Cc1sc(C(=O)c2cncnc2N[C@H]2C[C@H](O)[C@@H](COS(N)(=O)=O)[C@@H]2F)cc1C1NCCc2cc(F)c(F)cc21 (stereo partly shown) [Compound 245] | 50 to 200 nM |
| NS(=O)(=O)OC[C@H]1[C@H](F)[C@@H](Nc2ncncc2C(=O)c2cc3c(s2)CCC[C@]32NCCc3cc(F)c(F)cc32)C[C@@H]1O [Compound 670] | ≤ 50 nM |
| NS(=O)(=O)OC[C@H]1[C@H](F)[C@@H](Nc2ncncc2C(=O)c2cc3c(s2)CCC32NC3(CC3)Cc3ccc(Cl)cc32)C[C@@H]1O (stereo partly shown) [Compound 166] | 50 to 200 nM |
| NS(=O)(=O)OC[C@H]1[C@H](F)[C@@H](Nc2ncncc2C(=O)c2cc3c(s2)CSCC32NCCc3ncc(Cl)cc32)C[C@@H]1O (stereo partly shown) [Compound 612] | 50 to 200 nM |
| CN1Cc2sc(C(=O)c3cncnc3N[C@H]3C[C@H](O)[C@@H](COS(N)(=O)=O)[C@@H]3F)cc2C2(C1)OCCc1ccc(Cl)cc12 (stereo partly shown) [Compound 723] | ≤ 50 nM |

| Structure (SMILES) | IC50 |
| --- | --- |
| NS(=O)(=O)OC[C@H]1[C@H](F)[C@@H](Nc2ncncc2C(=O)c2cc3c(s2)C(F)(F)CC32NCCc3ccc(F)cc32)C[C@@H]1O (stereo partly shown) [Compound 624] | 50 to 200 nM |
| CC1(C)CN[C@@]2(CCCc3sc(C(=O)c4cncnc4N[C@H]4C[C@H](O)[C@@H](COS(N)(=O)=O)[C@@H]4F)cc32)c2cc(Cl)ccc21 [Compound 1027] | > 200 nM |
| CC1Cc2ccc(Cl)cc2[C@]2(C=Cc3sc(C(=O)c4cncnc4N[C@H]4C[C@H](O)[C@@H](COS(N)(=O)=O)[C@@H]4F)cc32)N1 (stereo partly shown) [Compound 1057] | > 200 nM |
| COc1ccc2c(c1)C(c1cc(C(=O)c3cncnc3N[C@H]3C[C@H](O)[C@@H](COS(N)(=O)=O)[C@@H]3F)sc1C)NCC2 (stereo partly shown) [Compound 243] | > 200 nM |
| CCc1sc(C(=O)c2cncnc2N[C@H]2C[C@H](O)[C@@H](COS(N)(=O)=O)[C@@H]2F)cc1C1NCCc2ccc(Cl)cc21 (stereo partly shown) [Compound 260] | 50 to 200 nM |
| NS(=O)(=O)OC[C@H]1[C@H](F)[C@@H](Nc2ncncc2C(=O)c2cc3c(s2)CN(C2CC2)C[C@]32OCCc3ccc(Cl)cc32)C[C@@H]1O [Compound 743] | ≤ 50 nM |
| CN1CCc2ccc(Cl)cc2[C@@]12CCCc1sc(C(=O)c3cncnc3N[C@H]3C[C@H](O)[C@@H](COS(N)(=O)=O)[C@@H]3F)cc12 [Compound 596] | 50 to 200 nM |
| NS(=O)(=O)OC[C@H]1[C@H](F)[C@@H](Nc2ncncc2C(=O)c2cc3c(s2)C(F)=CC32NCCc3ccc(F)cc32)C[C@@H]1O (stereo partly shown) [Compound 618] | 50 to 200 nM |
| Cc1sc(C(=O)c2cncnc2N[C@H]2C[C@H](O)[C@@H](COS(N)(=O)=O)[C@@H]2F)cc1C1NC2(CC2)Cc2ccc(Cl)cc21 (stereo partly shown) [Compound 266] | 50 to 200 nM |
| Cc1ccc2c(c1)C(c1cc(C(=O)c3cncnc3N[C@H]3C[C@H](O)[C@@H](COS(N)(=O)=O)[C@@H]3F)sc1C)NCC2 (stereo partly shown) [Compound 241] | 50 to 200 nM |
| NS(=O)(=O)OC[C@H]1[C@H](F)[C@@H](Nc2ncncc2C(=O)c2cc3c(s2)CN(C2CC2)C[C@@]32OCCc3ccc(F)cc32)C[C@@H]1O [Compound 739] | > 200 nM |
| NS(=O)(=O)OC[C@H]1[C@H](F)[C@@H](Nc2ncncc2C(=O)c2cc3c(s2)CCCC32NCCc3ccc(C4CC4)cc32)C[C@@H]1O (stereo partly shown) [Compound 107] | 50 to 200 nM |
| COc1ccc2c(c1)C1(CCc3sc(C(=O)c4cncnc4N[C@H]4C[C@H](O)[C@@H](COS(N)(=O)=O)[C@@H]4F)cc31)NCC2 (stereo partly shown) [Compound 150] | > 200 nM |
| Cc1sc(C(=O)c2cncnc2N[C@H]2C[C@H](O)[C@@H](COS(N)(=O)=O)[C@H]2F)cc1C1NCCc2cc(Cl)c(Cl)cc21 (stereo partly shown) [Compound 247] | 50 to 200 nM |
| CC1Cc2ccc(Cl)cc2C2(CCCc3sc(C(=O)c4cncnc4N[C@H]4C[C@H](O)[C@@H](COS(N)(=O)=O)[C@@H]4F)cc32)N1 (stereo partly shown) [Compound 1023] | 50 to 200 nM |
| NS(=O)(=O)OC[C@H]1[C@H](F)[C@@H](Nc2ncncc2C(=O)c2cc3c(s2)C=CC32OCCc3ccc(F)cc32)C[C@@H]1O (stereo partly shown) [Compound 756] | 50 to 200 nM |
| Cc1sc(C(=O)c2cncnc2N[C@H]2C[C@H](O)[C@@H](COS(N)(=O)=O)[C@@H]2F)cc1C1(C)NCCc2ccc(Cl)cc21 (stereo partly shown) [Compound 270] | 50 to 200 nM |
| NS(=O)(=O)OC[C@H]1[C@H](F)[C@@H](Nc2ncncc2C(=O)c2cc3c(s2)COC[C@]32NCCc3ccc(Cl)c(Cl)c32)C[C@@H]1O [Compound 560] | 50 to 200 nM |
| COc1ccc2c(c1)[C@]1(CCCc3sc(C(=O)c4cncnc4N[C@H]4C[C@H](O)[C@@H](COS(N)(=O)=O)[C@@H]4F)cc31)NCC2 [Compound 643] | > 200 nM |

Same assay, conditions: numeric values, 6 h at 37° C.

| Structure (SMILES) | IC50 |
| --- | --- |
| [2H]C1([2H])Cc2ccc(Cl)cc2[C@]2(CCCc3sc(C(=O)c4cncnc4N[C@H]4C[C@H](O)[C@@H](COS(N)(=O)=O)[C@@H]4F)cc32)N1 [Compound 661] | > 1000 nM |
| [2H]C1([2H])CN[C@]2(CCCc3sc(C(=O)c4cncnc4N[C@H]4C[C@H](O)[C@@H](COS(N)(=O)=O)[C@@H]4F)cc32)c2cc(Cl)ccc21 [Compound 665] | 20.6 nM |
